{"source": "patent US11517587B2", "about": "“Drug therapy to inhibit chemotherapy-induced adverse effects and related pharmaceutical compositions, diagnostics, screening techniques and kits” (YALE UNIVERSITY, priority 2011, dated 2022)", "key": {"[1]": {"test_system": "lung cancer cell line (H1975)", "assay": "Xenograft tumor volume in nude mice", "type": "in vivo", "settings": "LiCl in the presence of Taxol treatment, short time after initiation of co-therapy", "experimental": "FIG. 4B: tumor volume effect.\nOne or more murine models as described in Richmond, et al., Mouse xenograft models vs GEM models for human cancer therapeutics, Dis Model Mech. 2008 September-October; 1(2-3): 78-82, are prepared. As explained by Richmond, et al., “[t]hese models are used to investigate the factors involved in malignant transformation, invasion and metastasis, as well as to examine response to therapy. One of the most widely used models is the human tumor xenograft. […] For example, the xenograft will be readily accepted by athymic nude mice, severely compromised immunodeficient (SCID) mice, or other immunocompromised mice (Morton and Houghton, 2007). Depending upon the number of cells injected, or the size of the tumor transplanted, the tumor will develop over 1-8 weeks (or in some instances 1-4 months, or longer), and the response to appropriate therapeutic regimes can be studied in vivo.”\nPursuant to the above protocol, a lung cancer cell line (H1975) was injected into nude mice; after two weeks tumors were large enough to measure. Exemplary dosages for use in the above murine models include 25 mg/kg taxol injected 1 time per week (2×), lithium (12.8 mg/kg) injected 1 hour prior to paclitaxel injection. Protection of NCS-1 levels and intracellular Ca^2+ signals in cells is evaluated using techniques as described in Examples 1-3."}, "[2]": {"test_system": "NCS-1", "assay": "NCS-1 levels by Western blot in Taxol-treated SHSY-5Y neuroblastoma cells", "type": "cell-based", "excerpt": "(§1) Data shown are the average of three experiments.\nas §1\nMore specifically, AV411 (ibudilast) is a drug used in several Asian countries for treatment of bronchial asthma, cerebrovascular disorders, post-stroke dizziness, and ocular allergies. In accordance with the Materials and Methods section of PNAS, Jun.\nas §1"}, "[3]": {"test_system": "SHSY-5Y cells", "assay": "Intracellular Ca2+ signal in stimulated SHSY-5Y cells", "type": "cell-based", "experimental": "FIG. 2A: Protection of the intracellular calcium signal by 1 uM AV411. […] After 200 seconds thapsigargin (TG, an inhibitor of the intracellular Ca^2+ pump) was added to indicate that the intracellular stores were filled and the cells were viable (second arrow). […] Each line represents the average of at least 45 cells (at least 15 cells measured in three separate experiments).\nFIG. 2B: Protection of the intracellular calcium signal by 500 uM LiCl. Representative Ca^2+ responses of SHSY-5Y cells stimulated with 200 nM carbachol (at first arrow) to induce a transient release of Ca^2+ from intracellular stores. After 200 seconds thapsigargin (TG, an inhibitor of the intracellular Ca^2+ pump) was added to indicate that the intracellular stores were filled and the cells were viable (second arrow). […] Addition of 500 uM LiCl alone (pink trace)induced a small decrease in the Ca^2+ transient. […] Each line represents the average of at least 45 cells (at least 15 cells measured in three separate experiments.\nFIG. 3B: Protection of the intracellular calcium signal by 5.0 mM LiCl. Representative Ca^2+ responses of SHSY-5Y cells treated with 800 ng/mL Taxol for 6 hours in the presence and absence of 5.0 mM. The experiment is the same as described for FIG. 2 except that 5 mM LiCl was used.\n[…] After 200 seconds thapsigargin (TG, an inhibitor of the intracellular Ca^2+ pump) was added to indicate that the intracellular stores were filled and the cells were viable (second arrow). […] Each line represents the average of at least 45 cells (at least 15 cells measured in three separate experiments).\nIntracellular Ca^2+ signals monitored in intact cells were also found to be reduced by treatment with Taxol for 6 hours (FIGS. 2B and 3B; compare control treatment (black trace) with Taxol treatment (blue trace) in both figures)."}, "[4]": {"molecular_target": "NCS-1 / inositol 1,4,5 trisphosphate receptor (InsP3R) (Homo sapiens, UniProt P62166)", "sequence (P62166 2-190 limits assumed, species assumed)": "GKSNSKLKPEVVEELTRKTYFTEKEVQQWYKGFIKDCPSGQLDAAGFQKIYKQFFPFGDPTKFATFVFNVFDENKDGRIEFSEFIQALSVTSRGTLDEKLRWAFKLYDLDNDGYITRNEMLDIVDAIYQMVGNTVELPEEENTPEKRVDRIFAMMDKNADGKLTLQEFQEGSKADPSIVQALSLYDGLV", "assay": "NCS-1 binding to the InsP3R", "excerpt": "Based upon our observations regarding the activity of lithium carbonate, valproic acid, and chlorpromazine, we believe that there are additional drugs in these classes that will have the desired effect of preventing chemotherapy-induced polyneuropathy such as, but not limited to, […]."}, "[5]": {"test_system": "mice", "assay": "Paclitaxel-induced myelin damage in mice", "type": "in vivo", "settings": "paclitaxel-treated mice without Li-cotherapy"}, "[6]": {"molecular_target": "NCS-1 (Homo sapiens, UniProt P62166)", "sequence (P62166 whole entry, species assumed)": "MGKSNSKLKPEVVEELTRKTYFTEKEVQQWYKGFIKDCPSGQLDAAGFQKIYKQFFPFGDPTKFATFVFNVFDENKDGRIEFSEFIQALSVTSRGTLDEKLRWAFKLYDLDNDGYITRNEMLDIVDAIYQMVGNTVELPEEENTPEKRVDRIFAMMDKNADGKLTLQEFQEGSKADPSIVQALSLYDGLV", "assay": "Tryptophan fluorescence binding to NCS-1"}, "[7]": {"test_system": "calcium release", "assay": "Calcium release after low dose paclitaxel", "type": "in vivo, mice", "settings": "low doses of paclitaxel", "excerpt": "FIG. 11: Low dose paclitaxel decreases calcium release Lithium treatment prevents loss of calcium release."}, "[8]": {"test_system": "microtubule assembly", "assay": "Microtubule assembly", "type": "biochemical", "experimental": "FIG. 5: Paclitaxel speeds up microtubule assembly.\nThe relative effects of paclitaxel-LiCl and paclitaxel-AV411 co-administration on microtubule assembly were also determined."}, "[9]": {"test_system": "calpain", "assay": "Calpain activity after low dose paclitaxel", "type": "in vivo, mice", "excerpt": "FIG. 3: Low dose paclitaxel increases calpain activity. Lithium treatment prevents activation of calpain."}, "[10]": {"test_system": "NCS-1", "assay": "NCS-1 levels in peripheral nerve and brain after low dose paclitaxel", "type": "in vivo, mice", "excerpt": "FIG. 12: Low dose paclitaxel decreases NCS-1 levels in peripheral nerve, but not brain NCS-1 expression is maintained with lithium."}, "[11]": {"test_system": "mice", "assay": "Echocardiograms of mice injected with taxol", "type": "in vivo", "excerpt": "FIG. 5B: The bottom three panels of the figure attached, is from echocardiograms done on mice injected with taxol. These are the same mice for which the xenograph study was done (shown at the top of the figure). […] These are both measurements of contractility. […] Heart rate was not altered.\nTaxol causes cardiac arrhythmias. […] The recent data shown in the bottom three panels of the FIG. 5B, is information compiled from echocardiograms done on mice injected with taxol. These are the same mice upon which the xenograph study was done (shown at the top of the figure). […] These are both measurements of contractility, which was reversed by lithium pre-treatment. […] Heart rate was not altered. The cardiologist who performed the experiment at the request of the inventor(s) was quite impressed and is considering studies in human patients. There are studies in the literature showing that chemotherapy induced changes acutely in contractility can develop into long term heart rhythm problems."}, "[12]": {"test_system": "calcium signaling in cells", "assay": "Protection of calcium signaling by combination treatment / calpastatin expression", "type": "cell-based", "settings": "combination treatment with Li and calpastatin (expression of calpastatin in cells)", "excerpt": "FIG. 7: Combination treatment protects calcium signaling.\nFIG. 8: Expression of calpastatin, a natural calpain antagonist, protects calcium signaling in cells."}}}
{"molecule": "[Cl-].[Li+]", "note": "[LiCl, lithium chloride]", "values": [{"measurement": "Tumor volume", "setting": "[1]", "result": "statistically significant decrease in tumor volume"}, {"measurement": "NCS-1 levels (Western blot)", "setting": "[2]; 500 uM and 5.0 mM LiCl in the presence of Taxol, 6 hours, SHSY-5Y", "result": "protected from the Taxol-induced degradation of NCS-1"}, {"measurement": "NCS-1 levels (Western blot)", "setting": "[2]; LiCl alone (500 uM, 5.0 mM)", "result": "did not reduce NCS-1 levels"}, {"measurement": "Intracellular Ca2+ signals", "setting": "[3]; 500 uM or 5.0 mM LiCl in the presence of Taxol", "result": "signals similar to that of non-treated cells"}, {"measurement": "Intracellular Ca2+ signals", "setting": "[3]; LiCl alone", "result": "decreased the intracellular signals, but not to the extent seen with Taxol treatment"}]}
{"molecule": "CN(C)CCCN1c2ccccc2Sc2ccc(Cl)cc21", "note": "[chlorpromazine]", "values": [{"measurement": "NCS-1 binding to InsP3R", "setting": "[4]", "result": "prevent neuronal calcium sensor 1 (NCS-1) from binding to the inositol 1,4,5 trisphosphate receptor (InsP3R)"}]}
{"molecule": "O=C([O-])[O-].[Li+].[Li+]", "note": "[lithium carbonate]", "values": [{"measurement": "NCS-1 binding to InsP3R", "setting": "[4]", "result": "prevent neuronal calcium sensor 1 (NCS-1) from binding to the inositol 1,4,5 trisphosphate receptor (InsP3R)"}]}
{"molecule": "CC(=O)O[C@H]1C(=O)[C@@]2(C)[C@H]([C@H](OC(=O)c3ccccc3)[C@]3(O)C[C@H](OC(=O)[C@H](O)[C@@H](NC(=O)c4ccccc4)c4ccccc4)C(C)=C1C3(C)C)[C@]1(OC(C)=O)CO[C@@H]1C[C@@H]2O", "note": "[paclitaxel]", "values": [{"measurement": "Myelin damage", "setting": "[5]", "result": "evident myelin damage enlarged structures"}, {"measurement": "Binding to NCS-1", "setting": "[6]", "result": "binds to NCS-1"}, {"measurement": "NCS-1 levels (Western blot)", "setting": "[2]; paclitaxel (Taxol) alone, 800 ng/mL, 6 hours", "result": "decreased NCS-1 levels"}, {"measurement": "NCS-1 levels (Western blot)", "setting": "[2]; paclitaxel (Taxol) alone, 800 ng/mL, 6 hours, listed as Taxol", "result": "NCS-1 degradation"}, {"measurement": "Calcium release", "setting": "[7]", "result": "decreased calcium release"}, {"measurement": "Microtubule assembly", "setting": "[8]", "result": "accelerates microtubule assembly"}, {"measurement": "Calpain activity", "setting": "[9]", "result": "increased calpain activity"}, {"measurement": "NCS-1 levels in peripheral nerve and brain", "setting": "[10]", "result": "decreased NCS-1 levels in peripheral nerve, but not in the brain"}, {"measurement": "End diastolic diameter and fractional shortening (contractility)", "setting": "[11]; 1 hour after taxol injection", "result": "end diastolic diameter and fractional shortening were altered"}, {"measurement": "Heart rate", "setting": "[11]; after taxol injection", "result": "not altered"}, {"measurement": "Ca2+ response", "setting": "[3]; Taxol 800 ng/mL for 6 hours, stimulated with 1 uM ATP", "result": "response lower in amplitude than non-treated cells"}, {"measurement": "Intracellular Ca2+ signals", "setting": "[3]; Taxol for 6 hours, 200 nM carbachol", "result": "reduced"}]}
{"molecule": "CCCC(CCC)C(=O)O", "note": "[valproic acid]", "values": [{"measurement": "NCS-1 binding to InsP3R", "setting": "[4]", "result": "prevent neuronal calcium sensor 1 (NCS-1) from binding to the inositol 1,4,5 trisphosphate receptor (InsP3R)"}]}
{"molecule": "calpastatin: a natural calpain antagonist, expressed in cells (protein, UniProt P20810 1-708, looked up) Calpastatin: MNPTETKAIPVSQQMEGPHLPNKKKHKKQAVKTEPEKKSQSTKLSVVHEKKSQEGKPKEHTEPKSLPKQASDTGSNDAHNKKAVSRSAEQQPSEKSTEPKTKPQDMISAGGESVAGITAISGKPGDKKKEKKSLTPAVPVESKPDKPSGKSGMDAALDDLIDTLGGPEETEEENTTYTGPEVSDPMSSTYIEELGKREVTIPPKYRELLAKKEGITGPPADSSKPIGPDDAIDALSSDFTCGSPTAAGKKTEKEESTEVLKAQSAGTVRSAAPPQEKKRKVEKDTMSDQALEALSASLGTRQAEPELDLRSIKEVDEAKAKEEKLEKCGEDDETIPSEYRLKPATDKDGKPLLPEPEEKPKPRSESELIDELSEDFDRSECKEKPSKPTEKTEESKAAAPAPVSEAVCRTSMCSIQSAPPEPATLKGTVPDDAVEALADSLGKKEADPEDGKPVMDKVKEKAKEEDREKLGEKEETIPPDYRLEEVKDKDGKPLLPKESKEQLPPMSEDFLLDALSEDFSGPQNASSLKFEDAKLAAAISEVVSQTPASTTQAGAPPRDTSQSDKDLDDALDKLSDSLGQRQPDPDENKPMEDKVKEKAKAEHRDKLGERDDTIPPEYRHLLDDNGQDKPVKPPTKKSEDSKKPADDQDPIDALSGDLDSCPSTTETSQNTAKDKCKKAASSSKAPKNGGKAKDSAKTTEETSKPKDD", "values": [{"measurement": "Calcium signaling", "setting": "[12]", "result": "protected calcium signaling"}]}
